Assay results as given in ChEMBL document CHEMBL1201862, “PubChem BioAssay data set” (2004).
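Following 48 hours of exposure in 96-well plates, responses at five concentrations were used to interpolate endpoints linearly. Abbreviation: GI50, concentration required for 50% inhibition of growth.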 The source made the active and inactive calls. Rule as the data show it: active = GI50 up to about 1.1 µM and inactive = higher.

Columns and labels:
Assay in all cases: inhibition of tumour cell growth, NCI panel, 48 h
SK-MEL-28 = test system: SK-MEL-28
RXF 393 = test system: RXF 393
UACC-62 = test system: UACC-62
M19-MEL = test system: M19-MEL
KM-20L2 = test system: KM-20L2
K562 = test system: K562
CAKI-1 = test system: CAKI-1
NCI-H522 = test system: NCI-H522
HCT-116 = test system: HCT-116
COLO 205 = test system: COLO 205
SNB-78 = test system: SNB-78
NCI-H460 = test system: NCI-H460
MOLT-4 = test system: MOLT-4
IGROV-1 = test system: IGROV-1
SF-268 = test system: SF-268
NCI-H226 = test system: NCI-H226
LXFL 529 = test system: LXFL 529
SNB-75 = test system: SNB-75
HOP-18 = test system: HOP-18
HCC 2998 = test system: HCC 2998
M14 = test system: M14
A549 = test system: A549
CCRF-CEM = test system: CCRF-CEM
HOP-62 = test system: HOP-62
DMS-114 = test system: DMS-114
HT-29 = test system: HT-29
XF498 = test system: XF498
TK-10 = test system: TK-10
SK-MEL-2 = test system: SK-MEL-2
NCI-H23 = test system: NCI-H23
HL-60 = test system: HL-60
KM12 = test system: KM12
LOX IMVI = test system: LOX IMVI
RPMI-8226 = test system: RPMI-8226
SK-MEL-5 = test system: SK-MEL-5
SW-620 = test system: SW-620
SK-OV-3 = test system: SK-OV-3
EKVX = test system: EKVX
HOP-92 = test system: HOP-92
SF-539 = test system: SF-539
UACC-257 = test system: UACC-257
DMS-273 = test system: DMS-273
HCT-15 = test system: HCT-15
DLD-1 = test system: DLD-1
OVCAR-4 = test system: OVCAR-4
SNB-19 = test system: SNB-19
OVCAR-3 = test system: OVCAR-3
Malme-3M = test system: Malme-3M
U-251 = test system: U-251
786-0 = test system: 786-0
SF-295 = test system: SF-295
SN12C = test system: SN12C
ACHN = test system: ACHN
UO-31 = test system: UO-31
OVCAR-8 = test system: OVCAR-8
SR = test system: SR
OVCAR-5 = test system: OVCAR-5
PC-3 = test system: PC-3
T47D = test system: T47D
MDA-MB-231 = test system: MDA-MB-231
MDA-MB-435 = test system: MDA-MB-435
A498 = test system: A498
DU-145 = test system: DU-145
Hs-578T = test system: Hs-578T

COc1cc2cc3c4c(cc(OC)c(OC)c4c2cc1OC)CCN3
GI50 (SK-MEL-28): 69.8 µM (inactive) | GI50 (RXF 393): 25.1 µM (inactive) | GI50 (UACC-62): 5.61 µM (inactive) | GI50 (M19-MEL): 12.9 µM (inactive) | GI50 (KM-20L2): 27.5 µM (inactive) | GI50 (K562): 27.9 µM (inactive) | GI50 (CAKI-1): 67.1 µM (inactive) | GI50 (NCI-H522): 31.3 µM (inactive) | GI50 (HCT-116): 36.6 µM (inactive) | GI50 (COLO 205): 22.6 µM (inactive) | GI50 (SNB-78): > 100 µM (inactive) | GI50 (NCI-H460): 21.5 µM (inactive) | GI50 (MOLT-4): 35.3 µM (inactive) | GI50 (IGROV-1): > 100 µM (inactive) | GI50 (SF-268): 34 µM (inactive) | GI50 (NCI-H226): > 100 µM (inactive) | GI50 (LXFL 529): 58.6 µM (inactive) | GI50 (SNB-75): 44 µM (inactive) | GI50 (HOP-18): > 100 µM (inactive) | GI50 (HCC 2998): 72.8 µM (inactive) | GI50 (M14): 32.9 µM (inactive) | GI50 (A549): > 100 µM (inactive) | GI50 (CCRF-CEM): 26.5 µM (inactive) | GI50 (HOP-62): > 100 µM (inactive) | GI50 (DMS-114): 36 µM (inactive) | GI50 (HT-29): 32.9 µM (inactive) | GI50 (XF498): > 100 µM (inactive) | GI50 (TK-10): 74.5 µM (inactive) | GI50 (SK-MEL-2): 22.1 µM (inactive) | GI50 (NCI-H23): 92 µM (inactive) | GI50 (HL-60): 18.2 µM (inactive) | GI50 (KM12): 31.6 µM (inactive) | GI50 (LOX IMVI): 28.6 µM (inactive) | GI50 (RPMI-8226): 20 µM (inactive) | GI50 (SK-MEL-5): 23.8 µM (inactive) | GI50 (SW-620): 21.1 µM (inactive) | GI50 (SK-OV-3): > 100 µM (inactive) | GI50 (EKVX): 6.53 µM (inactive) | GI50 (HOP-92): 20.8 µM (inactive) | GI50 (SF-539): 14.6 µM (inactive) | GI50 (UACC-257): 58.6 µM (inactive) | GI50 (DMS-273): 33.7 µM (inactive) | GI50 (HCT-15): 32.9 µM | GI50 (DLD-1): 26.1 µM (inactive) | GI50 (OVCAR-4): 33.7 µM (inactive) | GI50 (SNB-19): > 100 µM (inactive) | GI50 (OVCAR-3): 27.2 µM (inactive) | GI50 (Malme-3M): 44.5 µM (inactive) | GI50 (U-251): > 100 µM (inactive) | GI50 (786-0): 48.4 µM (inactive) | GI50 (SF-295): 37 µM (inactive) | GI50 (SN12C): 46.7 µM (inactive) | GI50 (ACHN): 32.5 µM (inactive) | GI50 (UO-31): 69.2 µM (inactive) | GI50 (OVCAR-8): 76.4 µM (inactive)

Oc1cc(-c2ccccn2)nc2ccc(Cl)cc12
GI50 (SK-MEL-28): 34.8 µM (inactive) | GI50 (SR): > 100 µM (inactive) | GI50 (UACC-62): 28.7 µM (inactive) | GI50 (M19-MEL): 24.8 µM (inactive) | GI50 (K562): 12.8 µM (inactive) | GI50 (NCI-H522): 7.35 µM (inactive) | GI50 (COLO 205): 36.6 µM (inactive) | GI50 (SNB-78): 80.7 µM (inactive) | GI50 (NCI-H460): 38.1 µM (inactive) | GI50 (MOLT-4): 53.7 µM (inactive) | GI50 (IGROV-1): 64.1 µM (inactive) | GI50 (LXFL 529): 27.3 µM (inactive) | GI50 (SNB-75): 18.8 µM (inactive) | GI50 (HOP-18): 57.5 µM (inactive) | GI50 (HCC 2998): 58.9 µM (inactive) | GI50 (M14): 36.9 µM (inactive) | GI50 (CCRF-CEM): 36.5 µM (inactive) | GI50 (HOP-62): 40.3 µM (inactive) | GI50 (HT-29): 33 µM (inactive) | GI50 (XF498): 21.5 µM (inactive) | GI50 (TK-10): 95.7 µM (inactive) | GI50 (NCI-H23): 29.5 µM (inactive) | GI50 (HL-60): 10.9 µM (inactive) | GI50 (KM12): 24 µM (inactive) | GI50 (LOX IMVI): 30.8 µM (inactive) | GI50 (RPMI-8226): 18.2 µM (inactive) | GI50 (SW-620): 19.8 µM (inactive) | GI50 (SK-OV-3): 36 µM (inactive) | GI50 (EKVX): 44 µM (inactive) | GI50 (HOP-92): > 100 µM (inactive) | GI50 (SF-539): 31.8 µM (inactive) | GI50 (UACC-257): 31.7 µM (inactive) | GI50 (DLD-1): 41.5 µM (inactive) | GI50 (OVCAR-4): 47.1 µM (inactive) | GI50 (SNB-19): > 100 µM (inactive) | GI50 (Malme-3M): 21.7 µM (inactive) | GI50 (OVCAR-5): > 100 µM (inactive) | GI50 (786-0): 72.9 µM (inactive) | GI50 (SN12C): 48 µM (inactive) | GI50 (ACHN): 58.6 µM (inactive) | GI50 (UO-31): 36.1 µM (inactive) | GI50 (OVCAR-8): 44.2 µM (inactive)

COc1ccc2cc3[n+](cc2c1OC)CCc1cc2c(cc1-3)OCO2 [BERBERINE CHLORIDE]
GI50 (SK-MEL-28): 22.2 µM (inactive) | GI50 (RXF 393): 68.5 µM (inactive) | GI50 (UACC-62): 29.9 µM (inactive) | GI50 (PC-3): 26.9 µM (inactive) | GI50 (M19-MEL): 5.56 µM (inactive) | GI50 (KM-20L2): 28.2 µM (inactive) | GI50 (K562): 16.6 µM (inactive) | GI50 (T47D): 10.3 µM (inactive) | GI50 (SNB-78): 53.8 µM (inactive) | GI50 (NCI-H460): 12.2 µM (inactive) | GI50 (IGROV-1): 40.6 µM (inactive) | GI50 (SF-268): 5.2 µM (inactive) | GI50 (SNB-75): 36.5 µM (inactive) | GI50 (HOP-18): 106 µM (inactive) | GI50 (M14): 22.8 µM (inactive) | GI50 (CCRF-CEM): 13.2 µM (inactive) | GI50 (DMS-114): 4.23 µM (inactive) | GI50 (MDA-MB-231): 36.1 µM (inactive) | GI50 (MDA-MB-435): 12.8 µM (inactive) | GI50 (HT-29): 31 µM (inactive) | GI50 (XF498): 7.82 µM (inactive) | GI50 (TK-10): > 100 µM (inactive) | GI50 (SK-MEL-2): 25.3 µM (inactive) | GI50 (NCI-H23): 7.35 µM (inactive) | GI50 (HL-60): 13.6 µM (inactive) | GI50 (KM12): 7.71 µM (inactive) | GI50 (LOX IMVI): 77.1 µM (inactive) | GI50 (SK-MEL-5): 4.95 µM (inactive) | GI50 (SW-620): 40.6 µM (inactive) | GI50 (SK-OV-3): 84.5 µM (inactive) | GI50 (HOP-92): 36.7 µM (inactive) | GI50 (SF-539): 35.3 µM (inactive) | GI50 (DMS-273): 10.3 µM (inactive) | GI50 (A498): 95.9 µM (inactive) | GI50 (SNB-19): 8.38 µM (inactive) | GI50 (DU-145): > 44.5 µM (inactive) | GI50 (Malme-3M): 6.68 µM (inactive) | GI50 (OVCAR-5): 58.3 µM (inactive) | GI50 (Hs-578T): 10 µM (inactive) | GI50 (786-0): > 49.4 µM (inactive) | GI50 (ACHN): > 100 µM (inactive) | GI50 (OVCAR-8): 12.7 µM (inactive)
